Publication PMC9916658, “Design and Synthesis of New Quinazolin-4-one Derivatives with Negative mGlu7 Receptor Modulation Activity and Antipsychotic-Like Properties” (International Journal of Molecular Sciences, 2023)
Read-outs that look alike come from different tables or passages of the source.

Assays:
[1] = Pharmacokinetics and brain uptake in mice after i.p. administration; assay type: in vivo, mouse (Albino Swiss); settings: 10 mg/kg i.p.; for AUC(0-t) / Tmax / half-life / Cmax: ip
Procedure: Compounds were administered to mice at a dose of 10 mg/kg i.p. Plasma and tissue samples were collected at 0.25, 0.50, 1.0, 2.0, 4.0, 6.0, and 24 h. Plasma and tissue samples from all drug-treated animals were thawed at room temperature prior to use. The standard protocol for sample preparation was used: 200 μL of acetonitrile was added to the Eppendorf tubes with 50 μL of studied plasma samples or tissue homogenate. Samples were mixed for 5 min on a mixer at 25 °C and 1400 rpm. The tubes were then centrifuged at 2000× g for 15 min at 4 °C. A total of 180 μL of each supernatant was transferred to a plate well. Finally, each sample was injected into the LC–MS column. Calibration curve serial dilution method: Plasma was spiked with a standard at different concentrations. Acetonitrile was added. After mixing and centrifugation, the supernatant was collected.
Chromatographic conditions. Plasma and tissue samples from all drug-treated animals at selected time points were analyzed using a previously developed nonvalidated LC–MS/MS method. […] The LC–MS analysis was carried out on a Bruker amaZon SL mass spectrometer using the positive/negative ion ESI mode. Chromatographic separation was achieved on an Ascentis Express C18 column (5 cm × 2.1 mm, 2.7 μM, Supelco Technologies) at room temperature with a thermostatted column oven. A gradient elution of eluents A (acetonitrile (LiChrosolv, Reag. Ph Eur) + 0.1% formic acid (Sigma Aldrich, 98–100%)) and B (water + 0.1% formic acid) were used for separation. The flow rate was set at 1 mL/min. The injection volume was 20 μL, and the time of injection was 4 min.
Mass spectrometric conditions. An ion trap mass spectrometer (Bruker amaZon SL, Bruker, Bremen, Germany) was equipped with an electrospray source operating in the positive/negative ion mode. Data were collected and processed using Bruker Quant Analysis (Bruker, Bremen, Germany) software. A quantification of the analytes was performed in the SIM mode.

[2] = target: T1, recombinant human mGlu7 receptor (Homo sapiens, UniProt Q14831); experiment: NAM mGlu7 activity, forskolin-induced cAMP (HTRF) in T-REx 293 cell line; assay type: cell-based; settings: forskolin-stimulated cAMP response, 5 µM LSP4-2022 (EC80), T-REx 293 human mGlu7; for inhibition at 10 µM: T-REx-293, 10 μM compound
T1 construct: expressed in transfected cells; host or cells: T-REx 293 (tetracycline-inducible)
T1 sequence (Q14831 35-915): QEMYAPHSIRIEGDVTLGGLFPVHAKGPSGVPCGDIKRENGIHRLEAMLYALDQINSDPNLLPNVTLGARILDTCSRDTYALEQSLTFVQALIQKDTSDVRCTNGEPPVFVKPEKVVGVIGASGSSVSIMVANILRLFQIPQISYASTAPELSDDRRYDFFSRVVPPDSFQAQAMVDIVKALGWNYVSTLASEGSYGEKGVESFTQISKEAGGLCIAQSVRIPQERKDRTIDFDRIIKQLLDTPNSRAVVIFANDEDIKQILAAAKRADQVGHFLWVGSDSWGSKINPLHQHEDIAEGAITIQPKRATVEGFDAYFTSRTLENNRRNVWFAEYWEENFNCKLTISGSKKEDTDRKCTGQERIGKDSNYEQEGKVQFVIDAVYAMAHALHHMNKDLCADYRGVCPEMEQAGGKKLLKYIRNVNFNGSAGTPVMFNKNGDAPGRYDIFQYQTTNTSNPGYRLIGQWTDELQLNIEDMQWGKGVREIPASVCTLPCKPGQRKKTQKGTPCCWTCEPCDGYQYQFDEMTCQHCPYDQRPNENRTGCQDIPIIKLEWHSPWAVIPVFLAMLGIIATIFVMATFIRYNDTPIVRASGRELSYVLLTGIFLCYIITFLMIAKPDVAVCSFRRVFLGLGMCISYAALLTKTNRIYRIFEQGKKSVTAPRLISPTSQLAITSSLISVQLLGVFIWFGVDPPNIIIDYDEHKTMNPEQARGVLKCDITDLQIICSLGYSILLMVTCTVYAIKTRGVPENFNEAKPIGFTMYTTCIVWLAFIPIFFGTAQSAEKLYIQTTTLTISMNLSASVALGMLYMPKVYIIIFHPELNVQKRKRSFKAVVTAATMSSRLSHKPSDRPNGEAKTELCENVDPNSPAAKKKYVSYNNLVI
Procedure: The cell lines with the tetracycline-inducible expression of human metabotropic receptors 4, 7, and 8 were described in detail by Chruścicka et al. (mGlu4 receptor NM_000841, mGlu7 receptor NM_000844.2, and mGlu8 receptor NM_000845). Cells were grown under standard cell culture conditions (37 °C, 5% CO2) in DMEM supplemented with 10% tetracycline-free FBS. The expression was induced through the addition of tetracycline to the culture medium at 0.75 μg/mL.
The determination of the intracellular cAMP through homogeneous time-resolved fluorescence (HTRF) was described in detail previously. Briefly, 48 h before the experiments, the expression of the receptor was induced through the addition of tetracycline to the culture medium; the next day, FBS and L-Glu were removed from the medium. Just before the cAMP measurement, the cells were detached and centrifuged. Then, the cell suspension in Hanks-HEPES (130 mM NaCl, 5.4 mM KCl, 1.8 mM CaCl2, 0.8 mM MgSO4, 0.9 mM NaH2PO4, 20 mM HEPES, and 3.25 mM glucose; pH 7.4) was incubated in the presence of 10 µM forskolin (mGlu7 receptor, 3 µM forskolin), the agonist LSP4-2022 or L-Glu (for mGlu4 and mGlu8), and a compound for 5 min. The intracellular concentration of cyclic AMP was measured by means of a cAMP Gi HTRF kit from Cisbio, according to the manufacturer’s instructions. After 1 h of incubation at room temperature, the fluorescence at 620 nm and 665 nm was read (Tecan Infinite M1000). The results were calculated as the 665 nm/620 nm ratio multiplied by 10^4. Each sample was prepared in triplicate. Data were analyzed using GraphPad Prism version 5.04 for Windows (GraphPad Software, San Diego, USA).
The activity of the compounds was examined in the T-REx 293-cell-line-expressing recombinant human mGlu7 receptor by detecting the level of cyclic AMP in the presence of 5 µM forskolin [7, 41]. […] The substances were incubated with 5 µM LSP4-2022 (EC80).
Firstly, all compounds were screened at 10 μM using three cell lines expressing the mGlu4/7/8 receptor to evaluate selectivity. For the mGlu4 and mGlu8 receptors, glutamic acid was used as an agonist and had good potency. […] VU0155041 and AZ12216052 were used as reference compounds for the mGlu4 and mGlu8 receptors, respectively. The parameter described as “% of inhibition” was introduced to compare the bioactivity of the new compounds to the reference NAM at a 10 μM concentration in the presence of 5 μM LSP4-2022 (0%) and 3 μM forskolin (100%). […] For compounds that passed the screening procedure, the dose–response curve in the presence of LSP4-2022 in 5 μM was evaluated compared to reference NAM ADX71743. Only compounds ALX-063, ALX-065, and ALX-171 (Figure S3, Supplementary Materials) met our conditions regarding bioactivity. All of them were further investigated to determine the EC50 and receptor selectivity. […]
2.1. NAM mGlu7 receptor activity on T-Rex 293 cell line
The activity of compounds was examined on T-REx 293 cell line expressing recombinant human mGlu7 receptor by detecting the level of cyclic AMP in the presence of 5 µM forskolin [14,15]. The cell line was […]
incubated with 5 µM of LSP4-2022 (EC80).

mock T-REx 293 cell line = experiment: Off-target T-REx screening, forskolin-induced cAMP in untransfected cells; assay type: cell-based
Description: Off-target (T-Rex screening)
Figure S5. Activity of compounds ALX-065 and ALX-171 in forskolin-induced cAMP accumulation in
untransfected cells of the T-REx 293 line. Similar to reference mGlu7 receptor ADX71743, no effects of the tested […]

[3] = mouse Albino Swiss, brain, read-out: AUC0-t, brain
[4] = mouse Albino Swiss, plasma, read-out: AUC0-t, plasma
[5] = Albino Swiss, mouse, plasma and brain, mice, read-out: Tmax (plasma and brain) (converted)
[6] = mouse Albino Swiss, brain, read-out: T1/2, brain (converted)
[7] = mouse Albino Swiss, brain, read-out: Tmax, brain
[8] = mouse Albino Swiss, plasma, read-out: T1/2, plasma (converted)
[9] = mouse Albino Swiss, plasma, read-out: Tmax, plasma

AUC(0-t) [1, 3] [nM·h] | AUC(0-t) [1, 4] [nM·h] | Cmax, brain ([1]; mouse Albino Swiss, brain) [µM/L] | inhibition at 10 µM [2] [%] | Tmax [1, 5] [min] | half-life [1, 6] [min] | Tmax [1, 7] [min] | Cmax ([1]; mouse Albino Swiss, plasma) [µM] | half-life [1, 8] [min] | Tmax [1, 9] [min] | Inhibition (%) ([2]; 10 μM compound) | SMILES | effect on forskolin-induced cAMP accumulation in untransfected cells (mock T-REx 293 cell line)
13800 | 13400 | 2.52 | 30.8 ± 6.44 | 15 | 334 | 15 | 4.46 | 312 | 30 | 30.8 ± 6.44 | COc1cccc(-c2ccc3nc(-c4ccccc4Cl)n(C)c(=O)c3c2)c1OC [ALX-171, 2-(2-chlorophenyl)-6-(2,3-dimethoxyphenyl)-3-methylquinazolin-4(3H)-one] | no effects
1320 | 1990 | 1.81 | 26.5 ± 11.8 | 15 | 29.4 | 15 | 2.28 | 78.6 | 15 |  | Cn1c(-c2ccccc2Cl)nc2ccc(-c3ccccc3)cc2c1=O [ALX-065, 2-(2-chlorophenyl)-3-methyl-6-phenylquinazolin-4(3H)-one] | no effects

SMILES | AUC(0-t) [1, 3] [nM·h] | AUC(0-t) [1, 4] [nM·h] | Cmax, brain ([1]; mouse Albino Swiss, brain) [µM/L] | inhibition at 10 µM [2] [%] | Tmax [1, 5] [min] | half-life [1, 6] [min] | Tmax [1, 7] [min] | Cmax ([1]; mouse Albino Swiss, plasma) [µM] | half-life [1, 8] [min] | Tmax [1, 9] [min] | Inhibition (%) ([2]; 10 μM compound) | effect on forskolin-induced cAMP accumulation in untransfected cells (mock T-REx 293 cell line)
CCc1nc2c(o1)CC(c1ccc(C)cc1C)CC2=O (stereo not shown) [ADX71743, reference compound] | 2270 | 1900 | 3.38 | 42.6 |  |  |  |  |  |  |  | no effects
